Data taken from patent publication US8841325B2, “Immunomodulatory compounds for the restoration of vitamin D sensitivity in vitamin D resistant tumor cells” (Celgene Corporation, priority 2009, dated 2014).

Columns and labels:
[1] = tested on: MDA-MB-231 cells; test: Western blot of key signalling proteins (AKT, ERK1/2, VDR); type: cell-based; settings: 1 μM lenalidomide co-treatment with 100 nM 1,25-D3, 6 days
Experimental: More particularly, FIG. 11 illustrates the effects of co-treatment lenalidomide/1, 25-D3 on expression of key signalling proteins in MDA-MB-231 cells. […] Cells were also treated with 0.1% DMSO as a control. Whole proteins were extracted and probed for total AKT (T-AKT), phosphor-AKT (P-AKT), total ERK1/2 (T-ERK1/2), phospho-ERK1/2 (P-ERK1/2), phosphor-p38 and total p38, VDR and b-actin as a house-keeping protein. Representative blots for the three experiments are shown.

[2] = tested on: MCF-7/VD^R cells; test: Cell viability by neutral red assay, MCF-7/VD^R; type: cell-based; settings: up to 6 days
From the text: (§1) Non-treated cells were used as a control.
as §1

Nc1cccc2c1CN(C1CCC(=O)NC1=O)C2=O (stereo not drawn) [Lenalidomide, 1-oxo-2-(2,6-dioxopiperidin-3-yl)-4-aminoisoindoline]
AKT and ERK1/2 activation and VDR protein expression [1]: No Effect | differences in viability ([2]; lenalidomide 0 μM up to 10 μM, FIG. 13, p>0.05): No significant differences | differences in viability ([2]; lenalidomide 0.01-1 μM alone or in combination with 1,25-D3 0-1000 nM, FIG. 14, p>0.05): No significant differences
